Test results reported in patent US20240041042A1, “1-(PYRIDYL)-5-AZINYLPYRAZOLE DERIVATIVES, AND THEIR USE FOR CONTROL OF UNDESIRED PLANT GROWTH” (Bayer Aktiengesellschaft, priority 2020, published 2024).
Like-named read-outs stand apart in the source and are kept apart here.

Assays:
Assay type in all cases: in vivo
[1] = tested on: Alopecurus myosuroides (ALOMY); experiment: Post-emergence herbicidal action against ALOMY; conditions: 320 g/ha, visual rating about 3 weeks after treatment vs untreated controls (100% = plants have died, 0% = like control plants)
In short: (§1)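 Values are percent visual activity (0% like control, 100% plants dead) after about 3 weeks in the greenhouse. Treatment: post-emergence spray at one-leaf stage, 600 l/ha spray volume, 0.5% additive, doses 320 g/ha or lower.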

Viola tricolor (VIOTR) [2] = experiment: Pre-emergence herbicidal action against VIOTR; conditions: 320 g/ha, Viola tricolor
In short: (§2)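 Greenhouse pot trial: seeds sown, soil-covered, sprayed before emergence with compound in water (0.5% additive; 600 l/ha; ≤320 g/ha). Scoring visual, ~3 weeks, 0–100% scale vs untreated.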

[3] = tested on: Triticum aestivum (TRZAS); conditions: crop plant compatibility, 80 g/ha, effect vs untreated controls
In short: (§3)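 Greenhouse crops in sandy loam sprayed post-emergence at the one-leaf stage, 2–3 weeks after sowing, with WP or EC formulations in water plus 0.5% additive at 600 l/ha. Damage rated visually about 3 weeks later versus untreated controls (0% = like control, 100% = dead); suffixes a–c denote different doses.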

Oryza sativa (ORYSA) [4] = conditions: crop plant compatibility, effect in comparison to untreated controls
In short: as §3

[5] = tested on: Amaranthus retroflexus (AMARE); experiment: Post-emergence herbicidal action against AMARE
In short: as §1

Viola tricolor (VIOTR) [6] = experiment: Post-emergence herbicidal action against VIOTR; conditions: 320 g/ha
In short: as §1

[7] = tested on: Polygonum convolvulus (POLCO); experiment: Post-emergence herbicidal action against POLCO; conditions: dosage 320 g/ha
In short: as §1

[8] = tested on: Triticum aestivum (TRZAS); conditions: pre-emergence, crop plant compatibility, in comparison to untreated controls
In short: (§4)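 Scoring: visual, % of untreated control, about 3 weeks after a pre-emergence application to the soil surface. Application used WP or EC formulations diluted in water with 0.5% additive at 600 l/ha; dosage levels are marked by suffixes a, b and c.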

Oryza sativa (ORYSA) [9] = conditions: pre-emergence, crop plant compatibility, in comparison to untreated controls
In short: as §4

[10] = tested on: Amaranthus retroflexus (AMARE); experiment: Pre-emergence herbicidal action against AMARE; conditions: visual scoring after about 3 weeks vs untreated controls
In short: as §2

Zea mays (ZEAMX) [11] = conditions: crop plant compatibility, effect vs untreated controls
In short: as §3

[12] = tested on: Verconica persica (VERPE); experiment: Pre-emergence herbicidal action against VERPE; conditions: dosage 320 g/ha
In short: as §2

Zea mays (ZEAMX) [13] = conditions: pre-emergence, crop plant compatibility, in comparison to untreated controls
In short: as §4

[14] = tested on: Digitaria sanguinalis (DIGSA); experiment: Pre-emergence herbicidal action against DIGSA; conditions: dosage 320 g/ha
In short: as §2

[15] = tested on: Verconica persica (VERPE); experiment: Post-emergence herbicidal action against VERPE; conditions: 320 g/ha, VERPE
In short: as §1

[16] = tested on: Pharbitis purpurea (PHBPU); experiment: Post-emergence herbicidal action against PHBPU; conditions: dosage 320 g/ha
In short: as §1

Lolium rigidum (LOLRI) = experiment: Pre-emergence herbicidal action against LOLRI; conditions: dosage 320 g/ha
In short: as §2

[17] = tested on: Matricaria inodora (MATIN); experiment: Post-emergence herbicidal action against MATIN; conditions: dosage 320 g/ha
In short: as §1

Setaria viridis (SETVI) [18] = experiment: Pre-emergence herbicidal action against SETVI; conditions: dosage 320 g/ha
In short: as §2

[19] = tested on: Alopecurus myosuroides (ALOMY); experiment: Pre-emergence herbicidal action against ALOMY; conditions: 320 g/ha; scored visually after about 3 weeks; 100% = plants have died
In short: as §2

[20] = tested on: Polygonum convolvulus (POLCO); experiment: Pre-emergence herbicidal action against POLCO; conditions: dosage 320 g/ha
In short: as §2

[21] = tested on: Echinochloa crus-galli (ECHCG); experiment: Pre-emergence herbicidal action against ECHCG; conditions: dosage 320 g/ha
In short: as §2

[22] = tested on: Matricaria inodora (MATIN); experiment: Pre-emergence herbicidal action against MATIN; conditions: dosage 320 g/ha
In short: as §2

[23] = tested on: Abutilon theophrasti (ABUTH); experiment: Post-emergence herbicidal action against ABUTH; conditions: visual rating about 3 weeks after treatment vs untreated controls (100% = plants have died, 0% = like control plants)
In short: as §1

[24] = tested on: Digitaria sanguinalis (DIGSA); experiment: Post-emergence herbicidal action against DIGSA; conditions: 320 g/ha, visual rating about 3 weeks after treatment
In short: as §1

Setaria viridis (SETVI) [25] = experiment: Post-emergence herbicidal action against SETVI; conditions: dosage 320 g/ha
In short: as §1

[26] = 320 g/ha, visual rating about 3 weeks after treatment
[27] = 80 g/ha, visual rating about 3 weeks after treatment vs untreated controls (100% = plants have died, 0% = like control plants)

Post-emergence action against TRZAS in % [3] [%] | Post-emergence action against ORYSA in % (Oryza sativa (ORYSA) [4]; 80 g/ha) [%] | Post-emergence action against ORYSA in % (Oryza sativa (ORYSA) [4]; 320 g/ha) [%] | Pre-emergence action against TRZAS in % ([8]; 80 g/ha) [%] | Pre-emergence action against ORYSA in % (Oryza sativa (ORYSA) [9]; 80 g/ha) [%] | Pre-emergence action against ORYSA in % (Oryza sativa (ORYSA) [9]; 320 g/ha) [%] | Post-emergence action against ZEAMX in % (Zea mays (ZEAMX) [11]; 80 g/ha) [%] | Pre-emergence action against ZEAMX in % (Zea mays (ZEAMX) [13]; 80 g/ha) [%] | Structure (SMILES) | Pre-emergence action against VIOTR in % (Viola tricolor (VIOTR) [2]) [%] | Post-emergence action against AMARE in % [5, 26] [%] | Post-emergence action against VIOTR in % (Viola tricolor (VIOTR) [6]) [%] | Post-emergence action against POLCO in % [7] [%] | Pre-emergence action against AMARE in % ([10]; 320 g/ha) [%] | Post-emergence action against AMARE in % [5, 27] [%] | Pre-emergence action against VERPE in % [12] [%] | Post-emergence action against PHBPU in % [16] [%] | Pre-emergence action against LOLRI in % (Lolium rigidum (LOLRI)) [%] | also measured
0 | 0 | 0 | 0 | 0 | 0 |  |  | CCOC(=O)COc1nn(-c2ccncc2)c(-c2ccc(F)nc2)c1Br [III-08] | 90 | 80 | 80 | 80 | 80 |  |  |  |  | Post-emergence action against ALOMY in % [1]: 80%; Pre-emergence action against TRZAS in % ([8]; 320 g/ha): 0%
 | 0 | 0 | 0 | 0 | 10 | 0 | 0 | COC(=O)[C@H](C)NC(=O)COc1nn(-c2ccnc(F)c2)c(-c2ccc(F)nc2)c1Br [III-28] |  | 80 |  |  | 80 | 80 | 80 |  |  | Post-emergence action against ZEAMX in % (Zea mays (ZEAMX) [11]; 320 g/ha): 0%; Pre-emergence action against ZEAMX in % (Zea mays (ZEAMX) [13]; 320 g/ha): 10%
 | 0 | 0 | 20 |  |  | 0 | 20 | O=C(O)COc1nn(-c2ccccn2)c(-c2ccc(Cl)nc2)c1Cl [Example I-236] |  | 80 |  | 80 | 80 |  |  | 80 | 90 | Pre-emergence action against DIGSA in % [14]: 90%; Post-emergence action against VERPE in % [15]: 80%; Post-emergence action against MATIN in % [17]: 80%
20 | 0 | 0 | 0 |  |  | 0 | 0 | COC(=O)[C@@H](C)Oc1nn(-c2ncccc2F)c(-c2cccnc2)c1C#N [Example I-04] | 100 | 90 | 80 | 90 | 100 | 90 | 100 | 100 | 90 | Pre-emergence action against SETVI in % (Setaria viridis (SETVI) [18]): 100%; Pre-emergence action against ALOMY [19]: 100%; Pre-emergence action against POLCO in % [20]: 100%; Pre-emergence action against ECHCG in % [21]: 90%; Pre-emergence action against MATIN in % [22]: 90%; Post-emergence action against ABUTH in % ([23]; 80 g/ha): 90%; Post-emergence action against ABUTH in % ([23]; 320 g/ha): 90%; Pre-emergence action against AMARE in % ([10]; 80 g/ha): 90%; Post-emergence action against DIGSA in % [24]: 80%; Post-emergence action against SETVI in % (Setaria viridis (SETVI) [25]): 100%
